According to patent publication US7074796B2 (H. Lundbeck A/S, priority 1999, dated 2006):
Structures can show the parent of a compound that is named as a salt.

Columns and labels:
alpha-1 receptors = experiment: Inhibition of binding of [3H]Prazosine to rat alpha-1 receptors; conditions: [3H]Prazosine 0.25 nM, membranes from rat brain
Protocol: Inhibition of Binding of [^3H]Prazosine to Rat Alpha-1 Receptors
By this method the inhibition by drugs of the binding of [^3H]Prazosine (0.25 nM) to alpha-1 receptors in membranes from rat brain is determined in vitro. Method modified from Hyttel et al. J. Neurochem. 1985, 44, 1615–1622.

[1] = molecular target: T1, human cloned dopamine D3 receptors (Homo sapiens, UniProt P35462); experiment: Inhibition of the binding of [3H]Spiperone to human D3 receptors; conditions: [3H]Spiperone 0.3 nM, membranes of CHO-cells; for IC50: read-out: D3-bind. IC50; for inhibition at 0.1 µM: read-out: D3-bind. % inhibition of binding at 100 nM
T1 construct: expressed in transfected cells; host or cells: CHO cells
Protocol: Inhibition of the Binding of [^3H]Spiperone to Human D3 Receptors
By this method the inhibition by drugs of the binding [^3H]Spiperone (0.3 nM) to membranes of human cloned dopamine D3 receptors expressed in CHO-cells is determined in vitro. Method modified from MacKenzie et al. Eur. J. Pharm.-Mol. Pharm. Sec. 1994, 266, 79–85.

[2] = molecular target: T2, human cloned dopamine D4.2 receptors (Homo sapiens, UniProt P21917, DEL265-296); experiment: Inhibition of the binding of [3H]YM-09151-2 to human dopamine D4 receptors; conditions: [3H]YM-09151-2 0.06 nM, membranes of CHO-cells; read-out: D4-bind. IC50
T2 construct: expressed in transfected cells; host or cells: CHO cells
T2 sequence (P21917 with tags, fused parts or gaps DEL265-296): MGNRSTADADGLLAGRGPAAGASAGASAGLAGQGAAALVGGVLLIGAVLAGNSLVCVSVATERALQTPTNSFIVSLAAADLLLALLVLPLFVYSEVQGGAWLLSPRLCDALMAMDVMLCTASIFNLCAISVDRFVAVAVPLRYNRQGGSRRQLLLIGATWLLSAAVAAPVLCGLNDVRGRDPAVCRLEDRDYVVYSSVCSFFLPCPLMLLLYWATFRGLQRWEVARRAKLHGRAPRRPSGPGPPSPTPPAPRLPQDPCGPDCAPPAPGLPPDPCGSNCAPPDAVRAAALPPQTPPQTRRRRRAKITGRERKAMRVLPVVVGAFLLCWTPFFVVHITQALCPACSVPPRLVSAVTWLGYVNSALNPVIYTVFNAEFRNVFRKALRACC
Protocol: Inhibition of the Binding of [^3H]YM-09151-2 to Human Dopamine D4 Receptors
By this method the inhibition by drugs of the binding of [^3H]YM-09151–2 (0.06 nM) to membranes of human cloned dopamine D4.2 receptors expressed in CHO-cells is determined in vitro. Method modified from NEN Life Science Products, Inc., technical data certificate PC2533-10/96.

T1 sequence (P35462 whole entry): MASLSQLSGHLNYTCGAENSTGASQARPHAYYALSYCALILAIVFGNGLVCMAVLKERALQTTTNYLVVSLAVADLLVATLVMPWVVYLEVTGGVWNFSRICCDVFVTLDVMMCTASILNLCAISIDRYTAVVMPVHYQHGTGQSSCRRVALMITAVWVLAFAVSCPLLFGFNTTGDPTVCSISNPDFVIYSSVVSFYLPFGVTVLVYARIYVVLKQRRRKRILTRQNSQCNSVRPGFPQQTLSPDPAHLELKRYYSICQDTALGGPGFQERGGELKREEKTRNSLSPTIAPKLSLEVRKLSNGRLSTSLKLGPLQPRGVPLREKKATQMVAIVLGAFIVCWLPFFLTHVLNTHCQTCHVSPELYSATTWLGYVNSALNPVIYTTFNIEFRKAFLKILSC

Alpha-1 % inhibition of binding at 100 nM (alpha-1 receptors) [%] | D3-bind. % inhibition of binding at 100 nM ([1]; 100 nM) [%] | IC50 [2] [nM] | melting point [°C] | IC50 (alpha-1 receptors) [nM] | IC50 [1] [nM] | inhibition at 0.1 µM ([1]; 100 nM) [%] | Compound
34 | 95 | 26 | – | – | – | – | 5-[4-(2,3-Dichloro-phenyl)-piperazin-1-yl]-1-(3,4-dihydro-1H-isoquinolin-2-yl)propan-1-one [Compound 7f]
38 | – | 25 | – | – | – | 73 | O=C(CCN1CCN(c2cccc(Cl)c2Cl)CC1)N1CCc2cc(F)ccc21 [Compound 7a, 3-[4-(2,3-Dichlorophenyl)piperazin-1-yl]-1-(5-fluoro-2,3-dihydro-1H-indol-1-yl)propan-1-one]
6 | – | 53 | – | – | – | 65 | O=C(CCCN1CCN(c2cccc(Cl)c2Cl)CC1)N1CCc2cc(F)ccc21 [Compound 7b, 4-[4-(2,3-Dichlorophenyl)piperazin-1-yl]-1-(5-fluoro-2,3-dihydro-1H-indol-1-yl)butan-1-one]
45 | – | 61 | – | – | – | 92 | O=C(CCCCN1CCN(c2cccc(Cl)c2Cl)CC1)N1CCc2cc(F)ccc21 [Compound 7c, 5-[4-(2,3-Dichlorophenyl)piperazin-1-yl]-1-(5-fluoro-2,3-dihydro-1H-indol-1-yl)pentan-1-one]
44 | – | 6 | – | – | – | 85 | O=C(CCN1CCN(c2cccc(Cl)c2Cl)CC1)N1CCc2ccccc2C1 [Compound 7d, 3-[4-(2,3-Dichlorophenyl)piperazin-1-yl]-1-(3,4-dihydro-1H-isoquinolin-2-yl)-propan-1-one]
31 | – | 10 | – | – | – | 94 | O=C(CCCN1CCN(c2cccc(Cl)c2Cl)CC1)N1CCc2ccccc2C1 [Compound 7e]
92 | – | 8 | – | – | – | 73 | O=C(CCN1CCN(c2ccccc2Cl)CC1)N1CCc2ccccc2C1 [Compound 8k, 3-[4-(2-Chlorophenyl)piperazin-1-yl]-1-(3,4-dihydro-1H-isoquinolin-2-yl)-propan-1-one]
74 | – | 4 | – | – | – | 88 | O=C(CCCN1CCN(c2ccccc2Cl)CC1)N1CCc2ccccc2C1 [Compound 8l, 4-[4-(2-Chlorophenyl)piperazin-1-yl]-1-(3,4-dihydro-1H-isoquinolin-2-yl)-butan-1-one]
69 | – | 9 | – | – | – | 92 | O=C(CCCN1CCN(c2ccccc2F)CC1)N1CCc2ccccc2C1 [Compound 9k, 1-(3,4-Dihydro-1H-isoquinolin-2-yl)-4-[4-(2-fluoro-phenyl)-piperazin-1-yl]-butan-1-one]

Continued, compound first:

Compound | Alpha-1 % inhibition of binding at 100 nM (alpha-1 receptors) [%] | D3-bind. % inhibition of binding at 100 nM ([1]; 100 nM) [%] | IC50 [2] [nM] | melting point [°C] | IC50 (alpha-1 receptors) [nM] | IC50 [1] [nM] | inhibition at 0.1 µM ([1]; 100 nM) [%]
Clc1cccc(N2CCN(CCCCCN3CCc4ccccc43)CC2)c1Cl (as salt: hydrochloride) [Compound 2c, 1-{5-[4-(2,3-Dichlorophenyl)piperazin-1-yl]pentyl}-2,3-dihydro-1H-indole] | – | – | – | 219 to 228 | – | – | –
O=C1CCc2ccccc2N1CCCCN1CCN(c2cccc(Cl)c2Cl)CC1 (as salt: hydrochloride) [Compound 6, 1-{4-[4-(2,3-Dichlorophenyl)piperazin-1-yl]butyl}-3,4-dihydroquinolin-2(1H)-one] | – | – | – | 234 to 235 | – | – | –
O=C(CCN1CCN(c2cccc(Cl)c2Cl)CC1)N1CCc2ccccc21 [Compound 1a, 3-[4-(2,3-Dichlorophenyl)piperazin-1-yl]-1-(2,3-dihydro-1H-indol-1-yl)propan-1-one] | – | – | 3.3 | – | 59 | 100 | –
O=C(CCCN1CCN(c2cccc(Cl)c2Cl)CC1)N1CCc2ccccc21 [Compound 1b, 4-[4-(2,3-Dichlorophenyl)piperazin-1-yl]-1-(2,3-dihydro-1H-indol-1-yl)butan-1-one] | – | – | 2.8 | – | 1100 | 3 | –
O=C(CCCCN1CCN(c2cccc(Cl)c2Cl)CC1)N1CCc2ccccc21 [Compound 1c, 5-[4-(2,3-Dichlorophenyl)piperazin-1-yl]-1-(2,3-dihydro-1H-indol-1-yl)pentan-1-one] | – | – | 39 | – | 160 | 10 | –
O=C(CCCN1CCN(c2ccccc2Cl)CC1)N1CCc2ccccc21 [Compound 1d, 4-[4-(2-Chlorophenyl)piperazin-1-yl]-1-(2,3-dihydro-1H-indol-1-yl)butan-1-one] | – | – | 0.92 | – | 97 | 20 | –
O=C(CCCN1CCN(c2cccc(Cl)c2)CC1)N1CCc2ccccc21 [Compound 1e, 4-[4-(3-Chlorophenyl)piperazin-1-yl]-1-(2,3-dihydro-1H-indol-1-yl)butan-1-one] | – | – | 2.1 | – | 17 | 50 | –
Clc1cccc(N2CCN(CCCN3CCc4ccccc43)CC2)c1Cl [Compound 2a, 1-{3-[4-(2,3-Dichlorophenyl)piperazin-1-yl]propyl}-2,3-dihydro-1H-indole] | – | – | 1.8 | – | 68 | 31 | –
Clc1cccc(N2CCN(CCCCN3CCc4ccccc43)CC2)c1Cl [Compound 2b, 1-{4-[4-(2,3-Dichlorophenyl)piperazin-1-yl]butyl}-2,3-dihydro-1H-indole] | 10 | – | 12 | – | – | 3.1 | –
Clc1cccc(N2CCN(CCCCCN3CCc4ccccc43)CC2)c1Cl [Compound 2c, 1-{5-[4-(2,3-Dichlorophenyl)piperazin-1-yl]pentyl}-2,3-dihydro-1H-indole] | – | – | 18 | – | 190 | 22 | –
Clc1ccccc1N1CCN(CCCCN2CCc3ccccc32)CC1 [Compound 2d, 1-{4-[4-(2-Chlorophenyl)piperazin-1-yl]butyl}-2,3-dihydro-1H-indole] | – | – | 1.2 | – | 31 | 4 | –
Clc1cccc(N2CCN(CCCCN3CCc4ccccc43)CC2)c1 [Compound 2e, 1-{4-[4-(3-Chlorophenyl)piperazin-1-yl]butyl}-2,3-dihydro-1H-indole] | – | – | 1.6 | – | 40 | 17 | –
Clc1cccc(N2CCN(CCCCC3CCc4ccccc43)CC2)c1Cl (centres unmarked) [Compound 3, 1-(2,3-Dichlorophenyl)-4-[4-(indan-1-yl)butyl]piperazine] | −3 | – | 11 | – | – | 6.8 | –
Clc1ccc2c(SCCN3CCN(c4cccc(Cl)c4Cl)CC3)c[nH]c2c1 [Compound 4, 6-Chloro-3-{2-[4-(2,3-dichlorophenyl)piperazin-1-yl]ethylsulfanyl}-1H-indole] | – | – | 500 | – | 4800 | 40 | –
Clc1cccc(N2CCN(CCCc3c[nH]c4ccccc34)CC2)c1Cl [Compound 5a, 3-{3-[4-(2,3-Dichlorophenyl)piperazin-1-yl]propyl}-1H-indole] | – | – | 2.2 | – | 410 | 2.8 | –
Clc1cccc(N2CCN(CCCCc3c[nH]c4ccccc34)CC2)c1Cl [Compound 5b, 3-{4-[4-(2,3-Dichlorophenyl)piperazin-1-yl]butyl}-1H-indole] | – | – | 14 | – | 570 | 1.1 | –
Fc1ccc2[nH]cc(CCCN3CCN(c4cccc(Cl)c4Cl)CC3)c2c1 [Compound 5c, 3-{3-[4-(2,3-Dichlorophenyl)piperazin-1-yl]propyl}-5-fluoro-1H-indole] | – | – | 3.9 | – | 960 | 6.8 | –
Fc1ccc2[nH]cc(CCCCN3CCN(c4cccc(Cl)c4Cl)CC3)c2c1 [Compound 5d, 3-{4-[4-(2,3-Dichlorophenyl)piperazin-1-yl]butyl}-5-fluoro-1H-indole] | – | – | 8.6 | – | 720 | 1 | –
Clc1ccc2c(CCCN3CCN(c4cccc(Cl)c4Cl)CC3)c[nH]c2c1 [Compound 5e, 6-Chloro-3-{3-[4-(2,3-dichlorophenyl)piperazin-1-yl]propyl}-1H-indole] | – | – | 27 | – | 470 | – | 93
O=C1CCc2ccccc2N1CCCCN1CCN(c2cccc(Cl)c2Cl)CC1 [Compound 6, 1-{4-[4-(2,3-Dichlorophenyl)piperazin-1-yl]butyl}-3,4-dihydroquinolin-2(1H)-one] | – | – | 16 | – | 43 | 1.8 | –
